In US7812022B2 (GlaxoSmithKline LLC, priority 2004, dated 2010):

Columns and labels:
[1] = test system: BT474 and HN5 tumor cell lines; assay: Methylene blue growth inhibition assay (cellular Method A); format: cell-based, Human; details: Homo sapiens, BT-474, 72 h, 3 days, read-out: Activity (Method): growth inhibition IC50 class
Experimental: Human breast (BT474) and head and neck (HN5) were cultured in low glucose DMEM (Life Technologies 12320-032) containing 10% fetal bovine serum (FBS). Human colon tumor cells (Colo205) were cultured in DMEM (Invitrogen, 10564) containing 10% FBS. The SV40 transformed human mammary epithelial cell line HB4a was transfected with either human H-ras cDNA (HB4a r4.2) or the human c-ErbB2 cDNA (HB4a c5.2). The HB4a clones were cultured in RPMI containing 10% FBS, insulin (5 g/mL), hydrocortisone (5 g/mL), supplemented with the selection agent hygromycin B (50 g/mL). All lines were grown in a humidified incubator at 37° C. in 95% air, 5% CO2. Cells were harvested using trypsin/EDTA, counted using a haemocytometer, and plated in 100 microliters of the appropriate media, at the following densities, in a 96-well tissue culture plate (Falcon 3075): BT474 10,000 cells/well, HN5 3,000 cells/well. The next day, compounds were diluted in DMEM containing […] gentamicin, at twice the final required concentration, from 10 mM stock solutions in DMSO. 100 microliters/well of these dilutions were added to the 100 microliters of media currently on the cell plates. Medium containing 0.6% DMSO was added to control wells. Compounds diluted in DMEM were added to all cell lines. The final concentration of DMSO in all wells was 0.3%. Cells were returned to the incubator (37° C., 10% CO2) for 3 days. Medium was then removed by aspiration. Cell biomass was estimated by staining cells with 90 microliters per well methylene blue (Sigma M9140, 0.5% in 1:1 ethanol:water), and incubation at rt for at least 30 minutes. Stain was removed, and the plates rinsed by immersion in deionized water and air-dried. To release stain from the cells 100 microliters of solubilization solution was added (1% N-lauroyl sarcosine, Sodium salt, Sigma L5125, in PBS), and plates were shaken gently for about 30 minutes. Optical density at 620 nm was measured on a microplate reader. Percent inhibition of cell growth was calculated relative to vehicle treated control wells. Concentration of compound that inhibits 50% of control cell growth (IC50) was interpolated using nonlinear regression (Levenberg-Marquardt) and the equation, y=Vmax*(1−(x/(K+x)))+Y2, where “K” was equal to the IC50. Method B: Celltiter Glo® Growth Inhibition Assays

ErbB2 or EGFR = biological target: T1, ErbB2 or EGFR; assay: ErbB family substrate phosphorylation enzyme assay (HTRF), Method A or Method B; format: biochemical
T1 construct: enzymes purified from a baculovirus expression system; Reagent production was conducted essentially as described in Brignola, P. S., et al, (2002) J. Biol. Chem. 277(2): 1576-1585
Experimental: Compounds of the present invention were tested for EGFR, ErbB-2, and ErbB-4 protein tyrosine kinase inhibitory activity in substrate phosphorylation assays using enzymes purified from a baculovirus expression system. Reagent production was conducted essentially as described in Brignola, P. S., et al, (2002) J. Biol. Chem. 277(2): 1576-1585.
The method measures the ability of the isolated enzyme to catalyse the transfer of the gamma-phosphate from ATP onto the tyrosine residue of a biotinylated synthetic peptide referenced “Peptide C” in Brignola, P. S., et al, (2002) J. Biol. Chem. 277(2):1576-1585. The extent of tyrosine phosphorylation was measured using an anti-phosphotyrosine antibody, and quantified by homogenous time-resolved fluorescence (HTRF).
Reactions were performed in black 384-well polystyrene flat-bottom plates in a final volume of 20 ul. Assays were performed by adding 10 μl of each of the following solutions, substrate Mix and enzyme mix: The Substrate mix contained 100 mM 3-[N-morpholino]propanesulfonic acid (MOPS) (pH 7.5), 2 mM MnCl2, 20 μM ATP, 0.01% Tween-20, 0.1 mg/mL (BSA), 0.8 uM peptide substrate, and 1 mM dithiothreitol. The enzyme mix contained 100 mM MOPS (pH7.5); 0.01% Tween-20; 0.1 mg/mL BSA, and either 0.8 nM EGFR, 10 nM ErbB2, or 1 nM ErbB4
During the course of these studies, two separate methods have been used to measure the potency of compounds. In Method A, the substrate mix was added to the compound plates first, then the reaction was started by adding the enzyme mix. In Method B, the enzyme mix was added to the compound plates and the plates were incubated at 20° C. for 1 hour. The reactions were then started by adding the substrate mix.
After initiating the reaction with either method describe above, the reactions were allowed to proceed for 90 minutes at 20° C. The reactions were then terminated by the addition of 20 μl 100 mM EDTA to each well. 40 μl/well of HTRF detection mix were added to the assay plates. The final concentrations of the detection reagents were: 100 mM HEPES (pH7.5), 0.1 mg/mL BSA, 15 nM streptavidin-labeled allophycocyanin (PerkinElmer), and 1 nM europium-labeled anti-phosphotyrosine antibody (PerkinElmer). Assay plates were left unsealed and were counted in a Wallac Multilabel Counter 1420 (PerkinElmer).
Compounds under analysis were dissolved in Me2SO to 1.0 mM and serially diluted 1 to 3 with Me2SO through twelve dilutions. 1 μl of each concentration was transferred to the corresponding well of an assay plate. This creates a final compound concentration range from 0.00027 to 47.6 μM.
The data for dose responses were plotted as % Inhibition calculated with the data reduction formula 100*(1−(U1−C2)/(C1−C2)) versus concentration of compound where U is the unknown value, C1 is the average control value obtained for 4.76% DMSO, and C2 is the average control value obtained for 0.035 M EDTA. Data were fitted with a curve described by: y=((Vmax*x)/(K+x))+Y^2 where Vmax is the upper asymptote, Y2 is the Y intercept, and K is the IC50. The results for each compound were recorded as pIC50s, calculated as follows: pIC50=−Log 10(K)

[2] = Method B: enzyme mix pre-incubated with compound 1 hour at 20° C., started with substrate mix
[3] = Method A: substrate mix added first, reaction started with enzyme mix

| SMILES | IC50 [1] [nM] | Activity (Method): pIC50 class against ErbB2 or EGFR (ErbB2 or EGFR; [2]) | Activity (Method): pIC50 class against ErbB2 or EGFR (ErbB2 or EGFR; [3]) |
| --- | --- | --- | --- |
| O=C(Nc1cccc(-c2nn3ccccc3c2-c2ccnc(Nc3cccc(F)c3)n2)c1)c1cnc2ccccc2n1 [Example 24, N-[3-(3-{2-[(3-Fluorophenyl)amino]-4-pyrimidinyl}pyrazolo[1,5-a]pyridin-2-yl)phenyl]-2-quinoxalinecarboxamide] | > 1000 | + (B) (no pIC50 measurement greater than 6 against either ErbB2 or EGFR) |  |
| O=C(Nc1cccc(-c2nn3ccccc3c2-c2ccnc(Nc3ccc(N4CCOCC4)cc3)n2)c1)c1c(F)cccc1F [Example 27, 2,6-Difluoro-N-{3-[3-(2-{[4-(4-morpholinyl)phenyl]amino}-4-pyrimidinyl)pyrazolo[1,5-a]pyridin-2-yl]phenyl}benzamide] | < 100 | ++ (B) (at least one pIC50 measurement greater than 6 against either ErbB2 or EGFR but no measurement greater than pIC50 of 7) |  |
| NS(=O)(=O)c1ccc(Nc2nccc(-c3c(-c4cccc(NC(=O)c5c(F)cccc5F)c4)nn4ccccc34)n2)cc1 [Example 32, N-{3-[3-(2-{[4-(aminosulfonyl)phenyl]amino}-4-pyrimidinyl)pyrazolo[1,5-a]pyridin-2-yl]phenyl}-2,6-difluorobenzamide] | < 100 | +++ (B) (at least one pIC50 measurement of greater than 7 against either ErbB2 or EGFR) |  |
| O=C(Nc1cccc(-c2nn3ccccc3c2-c2ccnc(Nc3cccc(-c4cnco4)c3)n2)c1)c1c(F)cccc1F [Example 35, 2,6-Difluoro-N-{3-[3-(2-{[3-(1,3-oxazol-5-yl)phenyl]amino}-4-pyrimidinyl)pyrazolo[1,5-a]pyridin-2-yl]phenyl}benzamide] | < 100 | +++ (B) (at least one pIC50 measurement of greater than 7 against either ErbB2 or EGFR) |  |
| CC(=O)Nc1cccc(Nc2nccc(-c3c(-c4cccc(NC(=O)c5c(F)cccc5F)c4)nn4ccccc34)n2)c1 [Example 36, N-{3-[3-(2-{[3-(Acetylamino)phenyl]amino}-4-pyrimidinyl)pyrazolo[1,5-a]pyridin-2-yl]phenyl}-2,6-difluorobenzamide] | < 100 |  | +++ (A) (at least one pIC50 measurement of greater than 7 against either ErbB2 or EGFR) |
| Cc1noc(C)c1C(=O)Nc1cccc(-c2nn3ccccc3c2-c2ccnc(Nc3cccc(F)c3)n2)c1 [Example 38, N-[3-(3-{2-[(3-fluorophenyl)amino]-4-pyrimidinyl}-pyrazolo[1,5-a]pyridin-2-yl)phenyl]-3,5-dimethyl-4-isoxazolecarboxamide] | 100 to 1000 | +++ (B) (at least one pIC50 measurement of greater than 7 against either ErbB2 or EGFR) |  |

Second part, led by results:

| IC50 [1] [nM] | SMILES | Activity (Method): pIC50 class against ErbB2 or EGFR (ErbB2 or EGFR; [2]) | Activity (Method): pIC50 class against ErbB2 or EGFR (ErbB2 or EGFR; [3]) |
| --- | --- | --- | --- |
| > 1000 | Cc1cc(C(=O)Nc2cccc(-c3nn4ccccc4c3-c3ccnc(Nc4cccc(F)c4)n3)c2)n(C)n1 [Example 23, N-[3-(3-{2-[(3-Fluorophenyl)amino]-4-pyrimidinyl}pyrazolo[1,5-a]pyridin-2-yl)phenyl]-1,3-dimethyl-1H-pyrazole-5-carboxamide] | ++ (B) (at least one pIC50 measurement greater than 6 against either ErbB2 or EGFR but no measurement greater than pIC50 of 7) |  |
| > 1000 | Cn1nnc2cc(C(=O)Nc3cccc(-c4nn5ccccc5c4-c4ccnc(Nc5cccc(F)c5)n4)c3)ccc21 [Example 26, N-[3-(3-{2-[(3-fluorophenyl)amino]-4-pyrimidinyl}pyrazolo[1,5-a]pyridin-2-yl)phenyl]-1-methyl-1H-1,2,3-benzotriazole-5-carboxamide] | ++ (B) (at least one pIC50 measurement greater than 6 against either ErbB2 or EGFR but no measurement greater than pIC50 of 7) |  |
| < 100 | N#Cc1cccc(Nc2nccc(-c3c(-c4cccc(NC(=O)c5c(F)cccc5F)c4)nn4ccccc34)n2)c1 [Example 30, N-[3-(3-{2-[(3-cyanophenyl)amino]-4-pyrimidinyl}pyrazolo[1,5-a]pyridin-2-yl)phenyl]-2,6-difluorobenzamide] |  | +++ (A) (at least one pIC50 measurement of greater than 7 against either ErbB2 or EGFR) |
| 100 to 1000 | O=C(Nc1cccc(-c2nn3ccccc3c2-c2ccnc(Nc3cccc(C(F)(F)F)c3)n2)c1)c1c(F)cccc1F [Example 33, 2,6-Difluoro-N-{3-[3-(2-{[3-(trifluoromethyl)phenyl]-amino}-4-pyrimidinyl)pyrazolo[1,5-a]pyridin-2-yl]phenyl}benzamide] |  | +++ (A) (at least one pIC50 measurement of greater than 7 against either ErbB2 or EGFR) |
| < 100 | O=C(Nc1cccc(-c2nn3ccccc3c2-c2ccnc(Nc3ccccc3)n2)c1)c1c(F)cccc1F [Example 34, 2,6-Difluoro-N-(3-{3-[2-(phenylamino)-4-pyrimidinyl]pyrazolo[1,5-a]pyridin-2-yl}phenyl)benzamide] | +++ (B) (at least one pIC50 measurement of greater than 7 against either ErbB2 or EGFR) |  |
| < 100 | O=C(Nc1cccc(-c2nn3ccccc3c2-c2ccnc(Nc3cccc(F)c3)n2)c1)c1c(F)cccc1Cl [Example 37, 2-Chloro-6-fluoro-N-[3-(3-{2-[(3-fluorophenyl)amino]-4-pyrimidinyl}pyrazolo[1,5-a]pyridin-2-yl)phenyl]benzamide] | +++ (B) (at least one pIC50 measurement of greater than 7 against either ErbB2 or EGFR) |  |
| 100 to 1000 | O=C(Nc1cccc(-c2nn3ccccc3c2-c2ccnc(Nc3cccc(F)c3)n2)c1)c1cc(F)ccc1F [Example 39, 2,5-Difluoro-N-[3-(3-{2-[(3-fluorophenyl)amino]-4-pyrimidinyl}pyrazolo[1,5-a]pyridin-2-yl)phenyl]benzamide] | +++ (B) (at least one pIC50 measurement of greater than 7 against either ErbB2 or EGFR) |  |
| < 100 | N#Cc1cccc(Nc2nccc(-c3c(-c4cccc(NC(=O)c5cc(F)ccc5F)c4)nn4ccccc34)n2)c1 [Example 48, N-[3-(3-{2-[(3-Cyanophenyl)amino]-4-pyrimidinyl}pyrazolo[1,5-a]pyridin-2-yl)phenyl]-2,5-difluorobenzamide] |  | +++ (A) (at least one pIC50 measurement of greater than 7 against either ErbB2 or EGFR) |
